Assay results from patent publication US10085976B2, “Pharmaceutical composition for preventing or treating neurodegenerative diseases” (AJOU UNIVERSITY INDUSTRY-ACADEMIC COOPERATION FOUNDATION, priority 2015, dated 2018).

Experiments:
BV-2 cells [1] = assay: Phagocytosis assay with fluorescent microspheres, aggregated α-syn-treated BV-2 cells; format: cell-based, murine; details: 20 μM pre-incubation 30 minutes, then 1 NM of aggregated α-syn and fluorescent microspheres for 12 hours, FIG. 4D
Procedure: (§1) FIGS. 4D and 4E are graphs showing phagocytic activity after pre-incubating BV-2 cell and rat primary microglia with 20 μM of NSC87877 as an SHP-1 inhibitor for 30 minutes, and then incubating them with 1 NM of aggregated α-syn and fluorescent microspheres for 12 hours. ** P<0.01 represents a comparison with the control group.
(§2) Further, BV-2 cells, a murine microglial cell line, were grown in Dulbecco's modified Eagle's Medium (DMEM) supplemented with 5% fetal bovine serum (FBS) and maintained at 37° C. in a humidified atmosphere of 5% CO2. Rat primary microglia from the cerebral cortices of 1-day-old Sprague-Dawley rats were cultured as described in the known literature (Kim, K. S., et al., 2012. J Biol Chem. 287, 24862-72.).
(§3) Briefly, BV-2 cells (5×10^4 cells per well) were cultured in a 12 well plate overnight. The medium was then removed and replaced with fresh DMEM containing 5% FBS. […] The five random fields of cells (>100 cells) were counted under a confocal microscope (Zeiss, Germany). Percentage of phagocytic cells was analyzed by a known method (Park, J. Y., et al., 2008. Glia. 56, 1215-23.). For cell viability assay, BV-2 cells were treated with 1 μM of aggregated α-syn for 12 hours, and then LDH release was measured using an LDH-cytotoxicity assay kit (Biovision, CA) according to the manufacturer's instructions. […]

rat primary microglia = assay: Phagocytosis assay with fluorescent microspheres, aggregated α-syn-treated rat primary microglia; format: cell-based; details: 20 μM pre-incubation 30 minutes, then 1 NM of aggregated α-syn and fluorescent microspheres for 12 hours, FIG. 4E
Procedure: as §1, §2, §3

BV-2 cells [2] = assay: α-syn propagation, two-chamber co-culture with α-syn-overexpressed SH-SY5Y cells, immunostaining (BV-2); format: cell-based, murine; details: co-culture 12 hours, vs PBS-treated group, FIGS. 10B, 10E
Procedure: FIGS. 10B and 10E are images and graphs showing that α-syn propagation was reduced by treatment of SHP-1/2 inhibitor, NSC87877. *** P<0.001 represents a comparison with the PBS-treated group.
(§4) The prepared SHP-1 knockdown SH-SY5Y dopaminergic neuronal cell lines (SHP-1 KD1 and SHP-1 KD2) were co-cultured with α-syn-overexpressed SH-SY5Y dopaminergic neuronal cell line using the two-chamber system for 12 hours. The co-culture is briefly summarized as follows. SH-SY5Y or BV2 or OLN93 cell was seeded at a density of 4×10^4 cell per well on a 12-well cover glass, and α-syn-overexpressed SH-SY5Y cell was seeded at a density of 4×10^4 cell per well on a 12-well transwell. Each of the cells was incubated for one day, and then the transwell (α-syn-overexpressed SH-SY5Y cell) was transferred to the 12-well cover glass (SH-SY5Y cell), followed by co-culture for 12 hours, and then immunostaining.

SH-SY5Y cells = assay: α-syn propagation, two-chamber co-culture with α-syn-overexpressed SH-SY5Y cells, immunostaining (SH-SY5Y); format: cell-based, human; details: co-culture 12 hours, vs PBS-treated group, FIGS. 10I, 10K
Procedure: FIGS. 10I and 10K are images and graphs showing that propagation of aggregated α-syn is reduced in SH-SY5Y cell line treated with the SHP-1,2 inhibitor NSC87877, similar to the SHP-1 knockdown cells. *** P<0.001 represents a comparison with the PBS-treated group.
as §4

OLN 93 cell line = assay: α-syn propagation, two-chamber co-culture with α-syn-overexpressed SH-SY5Y cells, immunostaining (OLN 93); format: cell-based; details: OLN 93 cells; co-culture 12 hours; vs PBS-treated group; FIGS. 10N, 10P
Procedure: FIGS. 10N and 10P are images and graphs showing that propagation of α-syn is reduced in OLN 93 cell line treated with the SHP-1,2 inhibitor NSC87877. *** P<0.001 represents a comparison with the PBS-treated group.
as §4

rat microglia = assay: α-syn propagation, two-chamber co-culture with α-syn-overexpressed SH-SY5Y cells, immunostaining (primary microglia); format: cell-based; details: vs PBS-treated group, FIGS. 10C, 10F
Procedure: FIGS. 10C and 10F are images and graphs showing that α-syn propagation was reduced in rat microglia by treatment of the SHP-1/2 inhibitor, NSC87877. Scale bar indicates 20 μm, and *** P<0.001 represents a comparison with the PBS-treated group.
as §4

[3] = test system: differentiated SH-SY5Y cells; assay: LDH release cytotoxicity assay, aggregated α-syn on differentiated SH-SY5Y dopaminergic neurons; format: cell-based, human; details: 1 μM aggregated α-syn and 50 μM inhibitor for 2 days, FIG. 12B
Excerpt: FIG. 12B is a graph showing the effect of the SHP-1/2 inhibitor, NSC87877 on cytotoxicity of aggregated α-syn in undifferentiated SH-SY5Y cells and differentiated SH-SY5Y cells.
FIGS. 12C and 12D are images and graphs showing the effect of the SHP-1/2 inhibitor, NSC87877 on cytotoxicity of aggregated α-syn in differentiated SH-SY5Y cells. ** P<0.01 represents a comparison with the PBS-treated SHSY5Y.
To differentiate SH-SY5Y cells to dopaminergic neurons, SH-SY5Y cells seeded in a culture plate were cultured in a medium containing 50 μM of retinoic acid for 5 days. In this regard, the medium was replaced by a fresh medium containing 50 μM of retinoic acid at 3 days, 4 days, and 5 days after initiation of the culture. Further, in order to assess cytotoxicity, the differentiated SH-SY5Y dopaminergic neurons and undifferentiated SH-SY5Y dopaminergic neurons were seeded in 12-well, respectively, followed by incubation for one day. Thereafter, they were cultured in a medium containing 1 μM of aggregated α-syn and 50 μM of the SHP-1/-2 inhibitor NSC87877 for 2 days, and LDH (lactate dehydrogenase) release assay was performed according to the manufacturer's instructions.

[4] = test system: A53Tα-syn-overexpressed SHSY5Y cells; assay: Intracellular aggregation of eGFP-tagged A53T α-syn in co-culture, confocal microscopy; format: cell-based, human; details: co-culture with α-syn-overexpressed SHSY5Y, 5 days after treatment; FIG. 14C
Procedure: FIG. 14C is an image of confocal microscopy after differentiation with retinoic acid for 5 days in the co-culture of A53Tα-syn-overexpressed SHSY5Y and α-syn-overexpressed SHSY5Y under treatment of the SHP-1/2 inhibitor, NSC87877. Scale bar indicates 20 μm.
First, eGPF-tagged A53Tα-syn-overexpressed SHSY5Y cell line was prepared using lentivirus, and the prepared eGPP-tagged A53Tα-syn-overexpressed SHSY5Y cell line and α-syn-overexpressed SHSY5Y cell line were mixed, followed by co-culture. […] At 5 days after the co-culture, intracellular distribution of eGFP-tagged A53Tα-syn was observed under confocal microscopy.
In this regard, the SHP-1/2 inhibitor, NSC87877 was treated and A53Tα-syn-overexpressed SHSY5Y cell line and α-syn-overexpressed SHSY5Y cell line were mixed, followed by co-culture. At 5 days after NSC 87877 treatment and co-culture, intracellular distribution of eGFP-tagged A53Tα-syn was observed under confocal microscopy.

## O=S(=O)(O)c1ccc2cc(N=Nc3cc(S(=O)(=O)O)c4cccnc4c3O)ccc2c1 [NSC87877]
BV-2 cells [1]
  Effect on inhibition of microglial phagocytosis by aggregated α-syn: efficiently rescued the inhibitory effect of aggregated α-syn on microglial phagocytosis
Rat primary microglia
  Effect on inhibition of microglial phagocytosis by aggregated α-syn: efficiently rescued the inhibitory effect of aggregated α-syn on microglial phagocytosis
BV-2 cells [2]
  α-syn propagation: α-syn propagation was also reduced
SH-SY5Y cells
  α-syn propagation: α-syn propagation was also reduced
OLN 93 cell line
  α-syn propagation: α-syn propagation was also reduced
Rat microglia
  α-syn propagation: reduced α-syn propagation was observed
[3]
  Neurotoxicity (cytotoxicity, LDH release) by aggregated α-syn: neurotoxicity by aggregated α-syn was reduced
[4]
  Intracellular aggregation of eGFP-tagged A53Tα-syn (eGFP distribution): no aggregation in the cells
